From patent US11559513B2, “PTGDR-1 and/or PTGDR-2 antagonists for preventing and/or treating systemic lupus erythematosus” (INSTITUT NATIONAL DE LA SANTE ET DE LA RECHERCHE MEDICALE …, priority 2015, dated 2023)

Key:
purified human basophils = test: 18 hours stimulation of purified human basophils, marker expression and migration towards CXCL12; format: cell-based
Description: Human basophils were purified to >95% by negative selection with the Human Basophils Enrichment kit (Stemcell Technologies, Grenoble, France) for culture, stimulation and chemotaxis experiments. In some chemotaxis experiments, human basophils were enriched to 3-5% by negative selection with the Human PE positive selection kit (Stemcell Technologies) by using a cocktail of PE-conjugated anti-CD3, CD19 and CD89 (BioLegend). These kits were used following manufacturer instructions.
(§1) Human basophils and mouse splenocytes were cultured in culture medium (RPMI 1640 with Glutamax and 20 mM HEPES, 1 mM Na-pyruvate, non-essential amino acids 1× (all from Life Technologies, Saint-Aubin, France), 100 μg/ml streptomycin and 100 U/ml penicillin (GE Healthcare, Vélizy, France) and 37.5 μM β-mercaptoethanol (Sigma-Aldrich, MO)) supplemented with 20% heat-inactivated fetal calf serum at 37° C. and 5% CO2. 18 hours-long stimulation prior to migration assays were done in culture medium at 1×10^6 cells per mL by adding 1 nM of IL-3 (Peprotech), 1 μM of prostaglandin D2 (PGD2), 1 μM of the PTGDR-1 specific agonist BW245c, 1 μM of the PTGDR-2 specific agonist 13,14-dihydro-15-keto Prostaglandin D2 (DK-PGD2) (all from Cayman chemicals) or 5 ng/mL of anti-IgE (mouse anti-human IgE or rat anti-mouse IgE, both from Thermo Scientific). All cells were washed twice before any migration assay. Control conditions were always with the same vehicle concentration as stimulated conditions.
Migration assays were performed in culture medium supplemented with 0.1% bovine serum albumin (BSA, Sigma-Aldrich) in Transwell 5 μm polycarbonate permeable support 6.5 mm inserts (Corning, N.Y., N.Y.) for 3 hours at 37° C. and 5% CO2 with 1×10^5 purified basophils or 2×10^5 enriched basophils at 1×10^6 cells per mL. Purified or enriched basophils from the upper and bottom chambers were counted at the end of the assay. Basophil content and phenotype was determined by flow cytometry by analyzing more than 100 basophils. Purification or enrichment of human basophils didn't show any difference in the measured migration for all tested chemokines. Migration was defined as the ratio between the number of basophils in the bottom chamber and the number of basophils in the upper plus the bottom chambers. Spontaneous migration was defined as the migration observed without any chemokine in the bottom chamber. Corrected migration was defined as the difference between specific and spontaneous migration. For migration assays the following concentrations (known to be optimal) were used for each compound: Human IL-3: 300 pM (Peprotech), human CCL3, CCL5, and CXCL12: 50 nM; CXCL2 (all from BioLegend) and PGD2 (Cayman chemicals): 100 nM. Migration to human CCL3, CCL5, CXCL2, and PGD2 was done in the presence of IL-3 at 300 pM in both chambers. Migration with IL-3 represents chemokinetism: IL-3 was added in both chambers to the same concentration and compared to the spontaneous migration observed without IL-3. Effects of 24 hours incubation with IL-3 or PGD2 (as described above) on basophil apoptosis were estimated by using the FITC Annexin V Apoptosis Detection Kit from BD Biosciences and used accordingly to manufacturer's instructions.

[1] = tested on: WT mouse spleen basophils (splenocytes); test: CXCR4 expression on mouse spleen basophils ex vivo; format: cell-based; settings: for CXCR4 expression on other WT splenocytes including T and B cells: data not shown; for CXCR4 expression on spleen WT basophils ex vivo: specific agonists, 24 hours ex vivo
Description: (a) Ex vivo migration of basophils from whole WT or Lyn^−/− splenocytes to CXCL12. (b) CXCR4 expression levels on basophils from the indicated compartments in aged WT (n=16) and Lyn^−/− (n=14) animals. Data are normalized to the mean CXCR4 expression level of WT blood basophils. Statistical analyses placed directly above each bar compared the value for one given compartment to the blood compartment of the corresponding genotype. Statistical analyses between both genotypes for each compartment are also indicated. (c) Basophil number per peritoneum in young WT mice 24 hours after intraperitoneal (ip) injection of PBS or CXCL12 and compared to steady state (−) values (n=13/15/5, respectively). (d) CXCR4 expression levels on basophils from mesenteric lymph nodes (mLN) of young Lyn^−/− mice 24 hours after PBS or PGD2 ip injection normalized to PBS injected mice values' mean. (e) Basophil number in mLN of young Lyn^−/− mice 24 hours after ip injection of the indicated compound(s). (f) CXCR4 expression levels on spleen basophils from 15 weeks old WT mice incubated ex vivo for 24 hours with the indicated compound and normalized to the control values' mean. […] Basophils number and CXCR4 expression were assessed by flow cytometry. Statistical analyses were by unpaired t test with Welch's correction (a-e) and by paired Student t test (f).
(a-b) Relative CXCR4 expression levels on basophils (defined as CD19^−TCRβ^−CD3^−CD49b+FcεRIα^+CD123^+)CD45^lo and T cells (defined as CD45^+CD3^+TCRβ^+ cells) in splenocytes incubated 4 hours without (−) or with the indicated concentration of N6,2′-O-dibutyryl-adenosine 3′:5′-cyclic monophosphate (db-cAMP) or 1 μM PGD2 as determined by flow cytometry. Statistical analyses were by paired Student t tests. NS: not significant, *: P<0.05, **: P<0.01, ***: P<0.001. (c) Relative CXCR4 expression levels on spleen basophils (defined as in (a)) incubated 4 hours without (0) or with the indicated concentration (nM) of the indicated compound(s). DK-PGD2: 13,14-dihydro-15-keto-PGD2 (PTGDR-2 specific agonist); BW245c: 3-(3-Cyclohexyl-3-hydroxypropyl)-2,5-dioxo-(R*,S*)-(±)-4-imidazolineheptanioc acid (PTGDR-1 specific agonist) as determined by flow cytometry. Statistical analysis was by two-ways ANOVA followed by a Tukey's multiple comparisons test. (a-c) Data are normalized to control value mean (per group, n=4 to 8). Data are expressed as mean+s.e.m. All experiments were realized with splenocytes from 8-12 weeks old WT mice.
as §1

Lyn−/− mice = test: PGD2-induced basophil in vivo migration assay; design: species or system mouse
CXCR4 = CXCR4 (Homo sapiens, UniProt P61073); settings: cited from earlier work
12 weeks old Lyn−/− mice = test: Acceleration of lupus-like disease development by repeated PGD2 injections
Description: (a,b) Proportion of basophils (CD19^−TCRβ^−CD49b^+FcεRIα^+CD123^+)CD45^lo) among singlets living CD45^+ cells in mesenteric (a) and other (cervical, brachial and inguinal) lymph nodes (b) from 10 to 12 weeks-old Lyn^−/− mice injected over ten days with PBS (open circles) or PGD2 alone (open squares), and PGD2 injected and basophil depleted (MAR-1) (open diamonds) or not (IgG) (open triangles) as described in the methods. (c) IA-IE expression levels on LN basophils from mice as in (b). […] (d,e) Proportion of short lived plasma cells CD19^+CD138^+ among singlets living CD45^+ cells in spleen (d) and lymph nodes (e) in the same mice as in (b). (f) Representative immunofluorescence staining for C3 and IgG deposits in kidneys from mice as indicated in (b) (scale bar=1 mm) and their corresponding quantifications in PBS (n=3), PGD2 (n=4), PGD2+control IgG (n=3) and PGD2+MAR-1 (n=3) injected mice. (g) Fold increase in urine albumin/creatinine ratio before and after PBS or PGD2 10 days-long treatment. (a-e) Basophil, plasma cell numbers and IA-IE expression levels were assessed by flow cytometry. (a-g) Data are expressed as means±s.e.m. […] One representative out of three independent experiments is shown.
For acceleration of disease development by PGD2 injections, 12 weeks old Lyn^−/− mice were injected ip with 20 nmoles of PGD2 or vehicle in PBS, every two days for 10 days, for a total of 6 injections. Mice were analyzed the day following the last injection. […] Cell viability was assessed by the utilization of Ghost Dye Violet 510 (Tonbo, San Diego, Calif.).
Quantification of C3 and IgG deposits was realized by using ImageJ software (v1.49p, NIH, USA). A minimum of 20 glomeruli was quantified per kidney. For assessment of kidney function the albumin/creatinine ratio (ACR) was determined. Urine was collected from each mouse before and after treatment. The albumin concentration was measured with a mouse albumin ELISA (Bethyl laboratories, Montgomery, Tex.). A creatinine assay (R&D systems, Minneapolis, Minn.) was used to determine urine creatinine concentrations. Results are expressed as a fold increase corresponding to the ratio of the ACR after/before treatment.

WT mice = test: CXCL12-induced basophil in vivo migration assay; design: species or system mouse; settings: intraperitoneal injection, 24 hours
[2] = ip every two days over ten days

CXCR4, sequence (P61073 whole entry, species assumed): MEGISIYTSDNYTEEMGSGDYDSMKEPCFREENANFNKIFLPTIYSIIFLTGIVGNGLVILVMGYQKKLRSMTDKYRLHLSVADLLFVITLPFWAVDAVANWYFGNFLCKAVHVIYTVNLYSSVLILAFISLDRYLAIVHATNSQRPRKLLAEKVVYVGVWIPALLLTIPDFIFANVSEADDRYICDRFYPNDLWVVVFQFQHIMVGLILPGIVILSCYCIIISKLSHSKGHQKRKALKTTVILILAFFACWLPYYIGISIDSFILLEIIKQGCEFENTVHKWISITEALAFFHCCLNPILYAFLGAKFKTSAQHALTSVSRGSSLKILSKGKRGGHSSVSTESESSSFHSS

CXCL2: chemokine known to have an effect on basophils
increased CXCR4 externalization ex vivo as PGD2 did (purified human basophils; data not shown): None

O=C(O)CCCCCCC1C(=O)NC(=O)N1CCC(O)C1CCCCC1 (racemic) [BW245c, 3-(3-Cyclohexyl-3-hydroxypropyl)-2,5-dioxo-(R*,S*)-(±)-4-imidazolineheptanioc acid]
CXCR4 expression on other WT splenocytes including T and B cells [1]: significant but much lower increase | CXCR4 expression on spleen WT basophils ex vivo [1]: up-regulation

CCCCCC(=O)CCC1C(=O)CC(O)C1C/C=C\CCCC(=O)O (stereo not shown) [DK-PGD2, 13,14-dihydro-15-keto-PGD2]
CXCR4 expression on other WT splenocytes including T and B cells [1]: significant but much lower increase | CXCR4 expression on spleen WT basophils ex vivo [1]: up-regulation

c1cc(CN2CCCNCCNCCCNCC2)ccc1CN1CCCNCCNCCCNCC1 [AMD3100]
PGD2-induced basophil recruitment in SLOs and peritoneum (Lyn−/− mice; co-injection with PGD2, ip): completely abolished | known effects of CXCR4 antagonism (CXCR4): induce a release of hematopoietic stem cells and interfere with homeostatic functions

CCCC(=O)Nc1ncnc2c1ncn2[C@@H]1O[C@@H]2COP(=O)(O)O[C@H]2[C@H]1OC(=O)CCC [db-cAMP, N6,2′-O-dibutyryl-adenosine 3′:5′-cyclic monophosphate]
CXCR4 externalization by mouse WT spleen basophils ([1]; 4 hours ex vivo): externalized | sensitivity of basophils versus T cells to the compound (CXCR4 externalization) ([1]; 4 hours ex vivo): 100 fold

CCCCC[C@H](O)/C=C/[C@H]1C(=O)C[C@H](O)[C@@H]1C/C=C\CCCC(=O)O [PGD2, 9α,15S-dihydroxy-11-oxo-prosta-5Z,13E-dien-1-oic acid]
CXCR4 expression on mLN basophils (Lyn−/− mice; i.p. injection, 24 hours): increased | basophil accumulation in SLOs and peritoneum (Lyn−/− mice; i.p. injection, 24 hours): drove their accumulation | peripheral basopenia compared to steady state (Lyn−/− mice; ip injection, data not shown): significant, but transient | CXCR4 surface expression of other immune cell types (12 weeks old Lyn−/− mice; data not shown): didn't show any significant increase | albuminuria (12 weeks old Lyn−/− mice; end of protocol, versus PBS-injected): increased albuminuria | CD19+CD138+ plasma cells in SLOs (12 weeks old Lyn−/− mice; [2]): increased proportion | IA-IE expression on basophils (12 weeks old Lyn−/− mice; [2]): increased | basophil accumulation in SLOs (12 weeks old Lyn−/− mice; [2]): accumulated systemically | immune complexes in the kidney (C3 and IgG deposition) (12 weeks old Lyn−/− mice; [2]): increased deposition | basophil CXCR4 expression levels (12 weeks old Lyn−/− mice; ip every two days over ten days, data not shown): increased | basophil apoptosis (purified human basophils; 1 μM, data not shown): without inducing | CXCR4 expression on basophils (purified human basophils; 18 hours priming, 1 μM PGD2 or sub-optimal anti-IgE): enhanced | PTGDR-2 internalization (purified human basophils; 18 hours, 1 μM, data not shown): induced | FcεRIα expression on basophil surface (purified human basophils; PGD2 priming, data not shown): slight increase | migration towards CXCL12 (purified human basophils; after 18 hours priming): enhanced | CXCR4 externalization by T cells ([1]; 1 μM, 4 hours ex vivo): unable

CXCL12: C—X—C motif Ligand 12, chemokine; murine CXCL12 injected ip
in vivo basophil migration to the injection site and draining mesenteric lymph nodes (WT mice): induced

B1: CCL5: chemokine known to have an effect on basophils (protein, UniProt P13501 24-91, looked up)
C-C motif chemokine 5: SPYSSDTTPCCFAYIARPLPRAHIKEYFYTSGKCSNPAVVFVTRKNRQVCANPEKKWVREYINSLEMS
increased CXCR4 externalization ex vivo as PGD2 did (purified human basophils; data not shown): None

B2: CCL3: chemokine known to have an effect on basophils (protein, UniProt P10147 24-92, looked up)
C-C motif chemokine 3: SLAADTPTACCFSYTSRQIPQNFIADYFETSSQCSKPGVIFLTKRSRQVCADPSEEWVQKYVSDLELSA
increased CXCR4 externalization ex vivo as PGD2 did (purified human basophils; data not shown): None
